Measured values: ChEMBL document CHEMBL5303573, “Mapping human microbiome drug metabolism by gut bacteria and their genes” (Nature, 2019)
Non-standard residues stand in square brackets, D forms with d. Residues, ends and D or L forms follow the SMILES beside them. pGlu = O=C1CC[C@@H](C(=O)O)N1; Thz = O=C(O)[C@@H]1CSCN1

Tests used:
[1] = The drug is tested on Edwardsiella tarda strain: ATCC23685 for biotransformation. The drug concentrations were measured before and after a 12-h incubation by liquid-chromatography-coupled mass spectrometry (LC–MS); settings: 2 µM
[2] = bacteroides fragilis, 12 h, 2 µM
Description: The drug is tested on Bacteroides fragilis strain: DS-208 for biotransformation. The drug concentrations were measured before and after a 12-h incubation by liquid-chromatography-coupled mass spectrometry (LC–MS)

[3] = The drug is tested on Bacteroides sp. WH2 strain: WH2 for biotransformation. The drug concentrations were measured before and after a 12-h incubation by liquid-chromatography-coupled mass spectrometry (LC–MS); settings: bacteroides sp. wh2, 12 h, 2 µM
[4] = bacteroides thetaiotaomicron, 12 h, 2 µM
Description: The drug is tested on Bacteroides thetaiotaomicron strain: 7330 for biotransformation. The drug concentrations were measured before and after a 12-h incubation by liquid-chromatography-coupled mass spectrometry (LC–MS)

[5] = bacteroides stercoris, 12 h, 2 µM
Description: The drug is tested on Bacteroides stercoris strain: ATCC43183 for biotransformation. The drug concentrations were measured before and after a 12-h incubation by liquid-chromatography-coupled mass spectrometry (LC–MS)

[6] = The drug is tested on Bacteroides ovatus strain: ATCC8483 for biotransformation. The drug concentrations were measured before and after a 12-h incubation by liquid-chromatography-coupled mass spectrometry (LC–MS); settings: 2 µM
[7] = limosilactobacillus reuteri cf48-3a, 12 h, 2 µM
Description: The drug is tested on Lactobacillus reuteri CF48-3A strain: BEI HM-102 for biotransformation. The drug concentrations were measured before and after a 12-h incubation by liquid-chromatography-coupled mass spectrometry (LC–MS)

[8] = The drug is tested on Clostridium scindens strain: ATCC35704 for biotransformation. The drug concentrations were measured before and after a 12-h incubation by liquid-chromatography-coupled mass spectrometry (LC–MS); settings: 2 µM
[9] = The drug is tested on Enterococcus faecalis strain: V583 for biotransformation. The drug concentrations were measured before and after a 12-h incubation by liquid-chromatography-coupled mass spectrometry (LC–MS); settings: 2 µM
[10] = bacteroides thetaiotaomicron, 12 h, 2 µM; remark: listed apart in the source
Description: The drug is tested on Bacteroides thetaiotaomicron strain: VPI-5482 for biotransformation. The drug concentrations were measured before and after a 12-h incubation by liquid-chromatography-coupled mass spectrometry (LC–MS)

[11] = The drug is tested on Bacteroides finegoldii strain: DSM17565 for biotransformation. The drug concentrations were measured before and after a 12-h incubation by liquid-chromatography-coupled mass spectrometry (LC–MS); settings: 2 µM
[12] = The drug is tested on Odoribacter splanchnicus strain: fecal isolate for biotransformation. The drug concentrations were measured before and after a 12-h incubation by liquid-chromatography-coupled mass spectrometry (LC–MS); settings: 2 µM
[13] = The drug is tested on Dorea formicigenerans strain: ATCC27755 for biotransformation. The drug concentrations were measured before and after a 12-h incubation by liquid-chromatography-coupled mass spectrometry (LC–MS); settings: 2 µM
[14] = The drug is tested on Bacteroides caccae strain: ATCC43185 for biotransformation. The drug concentrations were measured before and after a 12-h incubation by liquid-chromatography-coupled mass spectrometry (LC–MS); settings: 2 µM
[15] = The drug is tested on Bacteroides vulgatus strain: ATCC8482 for biotransformation. The drug concentrations were measured before and after a 12-h incubation by liquid-chromatography-coupled mass spectrometry (LC–MS); settings: phocaeicola vulgatus, 2 µM
[16] = The drug is tested on Blautia hansenii strain: DSM20583 for biotransformation. The drug concentrations were measured before and after a 12-h incubation by liquid-chromatography-coupled mass spectrometry (LC–MS); settings: 2 µM
[17] = parabacteroides johnsonii, 12 h, 2 µM
Description: The drug is tested on Parabacteroides johnsonii strain: DSM18315 for biotransformation. The drug concentrations were measured before and after a 12-h incubation by liquid-chromatography-coupled mass spectrometry (LC–MS)

[18] = The drug is tested on Ruminococcus gnavus strain: ATCC29149 for biotransformation. The drug concentrations were measured before and after a 12-h incubation by liquid-chromatography-coupled mass spectrometry (LC–MS); settings: mediterraneibacter gnavus, 2 µM
[19] = The drug is tested on Collinsella aerofaciens strain: ATCC25986 for biotransformation. The drug concentrations were measured before and after a 12-h incubation by liquid-chromatography-coupled mass spectrometry (LC–MS); settings: 2 µM
[20] = The drug is tested on Bifidobacterium breve strain: DSM20213 for biotransformation. The drug concentrations were measured before and after a 12-h incubation by liquid-chromatography-coupled mass spectrometry (LC–MS); settings: 2 µM

Bacterial Biotransformation [1]	Bacterial Biotransformation [4]	Bacterial Biotransformation [5]	Bacterial Biotransformation [6]	Bacterial Biotransformation [8]	Bacterial Biotransformation [9]	Bacterial Biotransformation [10]	Bacterial Biotransformation [12]	Bacterial Biotransformation [13]	Bacterial Biotransformation [15]	Bacterial Biotransformation [16]	Bacterial Biotransformation [17]	Bacterial Biotransformation [18]	Bacterial Biotransformation [19]	SMILES	Bacterial Biotransformation [2]	Bacterial Biotransformation [3]	Bacterial Biotransformation [7]	Bacterial Biotransformation [11]	Bacterial Biotransformation [14]	Bacterial Biotransformation [20]
Compound NOT metabolized	Compound NOT metabolized	Compound NOT metabolized	Compound NOT metabolized	Compound NOT metabolized	Compound NOT metabolized	Compound NOT metabolized	Compound NOT metabolized	Compound NOT metabolized	Compound NOT metabolized	Compound NOT metabolized	Compound NOT metabolized	Compound NOT metabolized	Compound NOT metabolized	O=C(NCc1ccccc1)OCCO [BURAMATE]	Compound NOT metabolized	Compound NOT metabolized	Compound NOT metabolized	Compound NOT metabolized	Compound NOT metabolized	
Compound metabolized	Compound metabolized	Compound metabolized	Compound metabolized	Compound metabolized	Compound NOT metabolized	Compound metabolized	Compound metabolized	Compound metabolized	Compound metabolized	Compound metabolized	Compound metabolized	Compound NOT metabolized	Compound metabolized	CCCCC1=NC2(CCCC2)C(=O)N1Cc1ccc(-c2ccccc2-c2nnn[nH]2)cc1 [IRBESARTAN]	Compound metabolized	Compound metabolized	Compound metabolized	Compound metabolized	Compound NOT metabolized	
Compound NOT metabolized	Compound metabolized	Compound metabolized	Compound metabolized	Compound NOT metabolized	Compound NOT metabolized	Compound metabolized	Compound NOT metabolized	Compound NOT metabolized	Compound NOT metabolized	Compound metabolized	Compound metabolized	Compound NOT metabolized	Compound NOT metabolized	O=C1CC[C@@H](C(=O)N2CSC[C@H]2C(=O)O)N1 [PIDOTIMOD] ([pGlu]-[Thz]-OH)	Compound metabolized	Compound NOT metabolized				Compound NOT metabolized
Compound NOT metabolized	Compound NOT metabolized	Compound NOT metabolized	Compound NOT metabolized			Compound NOT metabolized	Compound NOT metabolized	Compound NOT metabolized	Compound NOT metabolized	Compound NOT metabolized	Compound NOT metabolized	Compound NOT metabolized	Compound NOT metabolized	CN1C(C(=O)Nc2ccccn2)=C(O)c2sccc2S1(=O)=O [TENOXICAM]			Compound NOT metabolized		Compound NOT metabolized	Compound NOT metabolized
Compound NOT metabolized	Compound metabolized	Compound metabolized	Compound metabolized	Compound NOT metabolized	Compound NOT metabolized	Compound metabolized	Compound metabolized	Compound NOT metabolized	Compound metabolized	Compound metabolized	Compound metabolized	Compound NOT metabolized		Cc1ccc(S(=O)(=O)NC(=O)NN2CCCCCC2)cc1 [TOLAZAMIDE]	Compound metabolized	Compound NOT metabolized				Compound NOT metabolized

SMILES	Bacterial Biotransformation [1]	Bacterial Biotransformation [4]	Bacterial Biotransformation [5]	Bacterial Biotransformation [6]	Bacterial Biotransformation [8]	Bacterial Biotransformation [9]	Bacterial Biotransformation [10]	Bacterial Biotransformation [12]	Bacterial Biotransformation [13]	Bacterial Biotransformation [15]	Bacterial Biotransformation [16]	Bacterial Biotransformation [17]	Bacterial Biotransformation [18]	Bacterial Biotransformation [19]	Bacterial Biotransformation [2]	Bacterial Biotransformation [3]	Bacterial Biotransformation [7]	Bacterial Biotransformation [11]	Bacterial Biotransformation [14]	Bacterial Biotransformation [20]
CCC(COC(=O)c1cc(OC)c(OC)c(OC)c1)(c1ccccc1)N(C)C.O=C(O)/C=C\C(=O)O (stereo not drawn)	Compound metabolized	Compound metabolized	Compound metabolized	Compound metabolized	Compound metabolized	Compound metabolized	Compound metabolized	Compound metabolized	Compound metabolized	Compound NOT metabolized	Compound metabolized	Compound metabolized	Compound metabolized		Compound NOT metabolized	Compound metabolized	Compound metabolized	Compound metabolized	Compound NOT metabolized	
CC(C)(C)NC[C@H](O)COc1nsnc1N1CCOCC1.O=C(O)/C=C\C(=O)O [TIMOLOL MALEATE]	Compound NOT metabolized		Compound NOT metabolized	Compound NOT metabolized	Compound NOT metabolized	Compound NOT metabolized	Compound NOT metabolized	Compound NOT metabolized	Compound NOT metabolized	Compound NOT metabolized	Compound NOT metabolized	Compound NOT metabolized	Compound NOT metabolized	Compound NOT metabolized	Compound NOT metabolized	Compound NOT metabolized	Compound NOT metabolized	Compound NOT metabolized	Compound NOT metabolized	Compound NOT metabolized
CC(CN(C)C)CN1c2ccccc2CCc2ccccc21.O=C(O)/C=C\C(=O)O (stereo not drawn) [TRIMIPRAMINE MALEATE]	Compound NOT metabolized	Compound NOT metabolized	Compound NOT metabolized	Compound NOT metabolized				Compound NOT metabolized	Compound NOT metabolized	Compound NOT metabolized	Compound NOT metabolized	Compound NOT metabolized	Compound NOT metabolized	Compound NOT metabolized	Compound NOT metabolized	Compound NOT metabolized	Compound NOT metabolized	Compound NOT metabolized	Compound NOT metabolized	Compound NOT metabolized
C[C@@H](c1ncncc1F)[C@](O)(Cn1cncn1)c1ccc(F)cc1F [VORICONAZOLE]	Compound NOT metabolized	Compound metabolized		Compound NOT metabolized	Compound NOT metabolized	Compound NOT metabolized		Compound metabolized	Compound NOT metabolized	Compound metabolized	Compound NOT metabolized	Compound NOT metabolized	Compound NOT metabolized	Compound NOT metabolized	Compound metabolized	Compound NOT metabolized	Compound NOT metabolized	Compound NOT metabolized	Compound NOT metabolized	Compound NOT metabolized
